Values quoted from earlier work in PubChem BioAssay AID1259409 (Chemical Carcinogenesis Research Information System (CCRIS), 2018).

Tested on: rodent chemically induced tumor inhibition, incidence and multiplicity
Experiment: CCRIS tumor inhibitor studies
Conditions: Carcinogen: DIETHYLNITROSAMINE, 55-18-5, 684-93-5, N-BUTYL-N-(4-HYDROXYBUTYL)NITROSAMINE, 3817-11-6, Carcinogen: DIETHYLNITROSAMINE, 55-18-5, 684-93-5, N-BUTYL-N-(4-HYDROXYBUTYL)NITROSAMINE, 3817-11-6, Dose [Inhibitor]: 0, Route [Inhibitor]: ORAL, Species: RAT

CCCCCCCCCCCCC(=O)COC1=C(O)C(=O)O[C@@H]1[C@@H](O)CO
tumour outcome (control, treated, inhibition, significance) (N-METHYL-N-NITROSOUREA, DIMETHY, N-METHYL-N-NITROSOUREA, DIMETHY, 1% IN THE DIET FOR 24 WK BEGINNING 1 DAY POST CARCINOGEN TREATMENT (STUDY DURATION: 28 WK), Strain/Sex: F344/MALE, Target Tissue: Type of Lesion: URINARY BLADDER: PAPILLOMA, Dose [Carcinogen]: 100 MG/KG BW DEN ONCE FOLLOWED BY 20 MG/KG BW MNU 4 TIMES AND 0.05% BBN IN DRINKING WATER DURING FIRST 2 WK THEN 40 MG/K, Promoter: NONE USED): 7%, 0%, 100%, not significant | tumour outcome (control, treated, inhibition, significance) (N-METHYL-N-NITROSOUREA, DIMETHY, N-METHYL-N-NITROSOUREA, DIMETHY, 1% IN THE DIET FOR 30 D BEGINNING 1 D PRIOR TO CARCINOGEN TREATMENT (STUDY DURATION: 28 WK), Strain/Sex: F344/MALE, Target Tissue: Type of Lesion: THYROID: CARCINOMA, Dose [Carcinogen]: 100 MG/KG BW DEN ONCE FOLLOWED BY 20 MG/KG BW MNU 4 TIMES AND 0.05% BBN IN DRINKING WATER DURING FIRST 2 WK THEN 40 MG/K, Promoter: NONE USED): 7%, 0%, 100%, not significant | tumour outcome (control, treated, inhibition, significance) (N-METHYL-N-NITROSOUREA, DIMETHY, N-METHYL-N-NITROSOUREA, DIMETHY, 1% IN THE DIET FOR 30 D BEGINNING 1 DAY PRIOR TO CARCINOGEN TREATMENT (STUDY DURATION: 28 WK), Strain/Sex: F344/ MALE, Target Tissue: Type of Lesion: URINARY BLADDER: PAPILLOMA, Dose [Carcinogen]: 100 MG/KG BW DEN ONCE FOLLOWED BY 20 MG/KG BW MNU 4 TIMES AND 0.05% BBN IN DRINKING WATER DURING FIRST 2 WK THEN 40 MG/K, Promoter: NONE USED): 7%, 0%, 100%, not significant | tumour outcome (control, treated, inhibition, significance) (N-METHYL-N-NITROSOUREA, DIMETHY, N-METHYL-N-NITROSOUREA, DIMETHY, 1% IN THE DIET FOR 30 D BEGINNING 1 DAY PRIOR TO CARCINOGEN TREATMENT (STUDY DURATION: 28 WK), Strain/Sex: F344/MALE, Target Tissue: Type of Lesion: LARGE INTESTINE: CARCINOMA, Dose [Carcinogen]: 100 MG/KG BW DEN ONCE FOLLOWED BY 20 MG/KG BW MNU 4 TIMES AND 0.05% BBN IN DRINKING WATER DURING FIRST 2 WK THEN 40 MG/K, Promoter: NONE USED): 7%, 7%, 0%, not significant | tumour outcome (control, treated, inhibition, significance) (N-METHYL-N-NITROSOUREA, DIMETHY, N-METHYL-N-NITROSOUREA, DIMETHY, 1% IN THE DIET FOR 30 D BEGINNING 1 DAY PRIOR TO CARCINOGEN TREATMENT (STUDY DURATION: 28 WK), Strain/Sex: F344/MALE, Target Tissue: Type of Lesion: SMALL INTESTINE: ADENOMA, Dose [Carcinogen]: 100 MG/KG BW DEN ONCE FOLLOWED BY 20 MG/KG BW MNU 4 TIMES AND 0.05% BBN IN DRINKING WATER DURING FIRST 2 WK THEN 40 MG/K, Promoter: NONE USED): 33%, 21%, 36%, not significant | tumour outcome (control, treated, inhibition, significance) (N-METHYL-N-NITROSOUREA, DIMETHY, N-METHYL-N-NITROSOUREA, DIMETHY, 1% IN THE DIET FOR 30 DAYS BEGINNING 1 D PRIOR TO CARCINOGEN TREATMENT (STUDY DURATION: 28 WK), Strain/Sex: F344/MALE, Target Tissue: Type of Lesion: SMALL INTESTINE: CARCINOMA, Dose [Carcinogen]: 100 MG/KG BW DEN ONCE FOLLOWED BY 20 MG/KG BW MNU 4 TIMES AND 0.05% BBN IN DRINKING WATER DURING FIRST 2 WK THEN 40 MG/K, Promoter: NONE USED): 7%, 14%, -100%, not significant | tumour outcome (control, treated, inhibition, significance) (N-METHYL-N-NITROSOUREA, DIMETHY, N-METHYL-N-NITROSOUREA, DIMETHY, 1% IN THE DIET FOR 30 DAYS BEGINNING 1 DAY PRIOR TO CARCINOGEN TREATMENT (STUDY DURATION: 28 WK), Strain/Sex: F344/MALE, Target Tissue: Type of Lesion: URINARY BLADDER: CARCINOMA): 7%, 0%, 100%, not significant | tumour outcome (control, treated, inhibition, significance) (N-METHYL-NITROSOUREA, DIMETHYLH, N-METHYL-NITROSOUREA, DIMETHYLH, 1% IN THE DIET FOR 30 DAYS BEGINNING 1 DAY PRIOR TO CARCINOGEN TREATMENT (STUDY DURATION: 28 WK), Strain/Sex: F344/MALE, Target Tissue: Type of Lesion: LARGE INTESTINE: ADENOMA, Dose [Carcinogen]: 100 MG/KG BW DEN ONCE FOLLOWED BY 20 MG/KG BW MNU 4 TIMES AND 0.05% BBN IN DRINKING WATER DURING FIRST 2 WK THEN 40 MG/K, Promoter: NONE USED): 27%, 29%, -7%, not significant
